Measured values: patent publication US5059624A, “Guanidine derivatives having hypotensive activity, composition containing them and process for obtaining them” (Consiglio Nazionale Delle Ricerche, priority 1988, dated 1991)
Read-outs that look alike come from different tables or passages of the source.

Key:
[1] = Lethal dose 50 (LD50) through i.p. route in mice; settings: mouse, in vivo, ip
Experimental: The lethal dose 50 (LD50) of guanido-I through i.p. route in mice turned out to be 57 mg±3.6 per kg.
The lethal dose 50 (LD50) of the diguanido-II through i.p. route in mice, turned out to be 7 mg±0.6 per kg.

cardiovascular responses = test: Interaction and pretreatment experiments with diguanido-II (cardiovascular and respiratory responses); type: in vivo

Experimental for male Wistar rats: In order to check its activity, diguanido-II was dissolved in a 0.9 % sodium chloride solution and administered through "rapid" i.v. route in male Wistar rats, under general anaesthesia obtained by means of 10% ethyl urethan (i ml/hg).
The active ingredients called guanido-III, -IV, -V, as well as agmatine and galegine, were also tested, after having been administered through "rapid" i.v. route in male Wistar rats (weighing average 280±5 g) under general anaesthesia obtained by means of 10% ethyl uretan (1 ml/hg, i.p.). The general experimental conditions were exactly the same as previously mentioned for guanido-I and diguanido-II, so that the cardiovascular and respiratory effects could be compared.
The parameters measured are as follows: systolic and diastolic systemic arterial pressure (AP), heart rate (HR), maximum rate of increase in the left ventricular isovolumetric pressure (dp/dt), respiratory frequency (RF) and tidal volume (TV). The doses (in μg/kg body weight, referred to the active substance) varied from 50 μg/kg to 6,400 μg/kg (ratio=2.0); in some cases higher does have been employed.

COc1ccc([C@@H]2[C@@H](C(=O)NCCCCNC(=N)NCC=C(C)C)[C@@H](C(=O)NCCCCNC(=N)NCC=C(C)C)[C@@H]2c2ccc(OC)c(OC)c2)cc1OC [diguanido-II]
LD50 [1]: 7 mg/kg
Δ AF (male Wistar rats; 50 μg/kg i.v.): +18.8 ± 3.40 ml/min
Δ AF % (male Wistar rats; 50 μg/kg i.v.): +43 ± 3%
Δ AP % DIAST (male Wistar rats; 50 μg/kg i.v.): +11.0 ± 1.7%
Δ AP % SYST (male Wistar rats; 50 μg/kg i.v.): +15.0 ± 2.7%
Δ AP DIAST (male Wistar rats; 50 μg/kg i.v.): +9.8 ± 1.7 mmHg
Δ AP SYST (male Wistar rats; 50 μg/kg i.v.): +17.2 ± 2.4 mmHg
Δ HR (male Wistar rats; 50 μg/kg i.v.): -9 ± 3 beats/min
Δ HR % (male Wistar rats; 50 μg/kg i.v.): -3 ± 1%
Δ SV (male Wistar rats; 50 μg/kg i.v.): +72.6 ± 5 μl
Δ SV % (male Wistar rats; 50 μg/kg i.v.): +61 ± 5%
Δ TV (male Wistar rats; 50 μg/kg i.v.): +13 ± 3%
Δ dp/dt (male Wistar rats; 50 μg/kg i.v.): +1070 ± 90 mmHg/sec
Δ dp/dt % (male Wistar rats; 50 μg/kg i.v.): +17 ± 4%
Δ AF (male Wistar rats; 100 μg/kg i.v.): +10.8 ± 1.20 ml/min
Δ AF % (male Wistar rats; 100 μg/kg i.v.): +25 ± 1%
Δ AP % DIAST (male Wistar rats; 100 μg/kg i.v.): +11.0 ± 1.1%
Δ AP % SYST (male Wistar rats; 100 μg/kg i.v.): +10.0 ± 2.6%
Δ AP DIAST (male Wistar rats; 100 μg/kg i.v.): +10.2 ± 1.1 mmHg
Δ AP SYST (male Wistar rats; 100 μg/kg i.v.): +11.7 ± 2.5 mmHg
Δ HR (male Wistar rats; 100 μg/kg i.v.): -10 ± 1 beats/min
Δ HR % (male Wistar rats; 100 μg/kg i.v.): -3 ± 1%
Δ SV (male Wistar rats; 100 μg/kg i.v.): +19.8 ± 6 μl
Δ SV % (male Wistar rats; 100 μg/kg i.v.): +17 ± 6%
Δ TV (male Wistar rats; 100 μg/kg i.v.): +4 ± 1%
Δ dp/dt (male Wistar rats; 100 μg/kg i.v.): +1129 ± 82 mmHg/sec
Δ dp/dt % (male Wistar rats; 100 μg/kg i.v.): +18 ± 1%
Δ AF (male Wistar rats; 200 μg/kg i.v.): -13.8 ± 4.20 mL/min
Δ AF % (male Wistar rats; 200 μg/kg i.v.): -32 ± 4%
Δ AP % DIAST (male Wistar rats; 200 μg/kg i.v.): -9.0 ± 1.8%
Δ AP % SYST (male Wistar rats; 200 μg/kg i.v.): -13.0 ± 1.4%
Δ AP DIAST (male Wistar rats; 200 μg/kg i.v.): -13.1 ± 1.8 mmHg
Δ AP SYST (male Wistar rats; 200 μg/kg i.v.): -14.4 ± 1.4 mmHg
Δ HR (male Wistar rats; 200 μg/kg i.v.): -13 ± 4 beats/min
Δ HR % (male Wistar rats; 200 μg/kg i.v.): -4 ± 0.3%
Δ SV (male Wistar rats; 200 μg/kg i.v.): +23.1 ± 6 μl
Δ SV % (male Wistar rats; 200 μg/kg i.v.): +19 ± 6%
Δ TV (male Wistar rats; 200 μg/kg i.v.): +3 ± 2%
Δ dp/dt (male Wistar rats; 200 μg/kg i.v.): +1369 ± 170 mmHg/sec
Δ dp/dt % (male Wistar rats; 200 μg/kg i.v.): +21 ± 4%
Δ AF (male Wistar rats; 400 μg/kg i.v.): -14.3 ± 5.7 mL/min
Δ AF % (male Wistar rats; 400 μg/kg i.v.): -33 ± 6%
Δ AP % DIAST (male Wistar rats; 400 μg/kg i.v.): -18.0 ± 1.4%
Δ AP % SYST (male Wistar rats; 400 μg/kg i.v.): -18.0 ± 1.9%
Δ AP DIAST (male Wistar rats; 400 μg/kg i.v.): -17.0 ± 1.4 mmHg
Δ AP SYST (male Wistar rats; 400 μg/kg i.v.): -19.8 ± 1.9 mmHg
Δ HR (male Wistar rats; 400 μg/kg i.v.): -16 ± 5 beats/min
Δ HR % (male Wistar rats; 400 μg/kg i.v.): -5 ± 2%
Δ SV (male Wistar rats; 400 μg/kg i.v.): -46.2 ± 4 µL
Δ SV % (male Wistar rats; 400 μg/kg i.v.): -39 ± 4%
Δ TV (male Wistar rats; 400 μg/kg i.v.): -51 ± 7%
Δ dp/dt (male Wistar rats; 400 μg/kg i.v.): +2615 ± 181 mmHg/sec
Δ dp/dt % (male Wistar rats; 400 μg/kg i.v.): +41 ± 5%
Δ AF (male Wistar rats; 800 μg/kg i.v.): -25.0 ± 6.1 mL/min
Δ AF % (male Wistar rats; 800 μg/kg i.v.): -57 ± 6%
Δ AP % DIAST (male Wistar rats; 800 μg/kg i.v.): -34.0 ± 3.1%
Δ AP % SYST (male Wistar rats; 800 μg/kg i.v.): -27.0 ± 3.6%
Δ AP DIAST (male Wistar rats; 800 μg/kg i.v.): -31.2 ± 3.1 mmHg
Δ AP SYST (male Wistar rats; 800 μg/kg i.v.): -30.0 ± 3.6 mmHg
Δ HR (male Wistar rats; 800 μg/kg i.v.): -16 ± 5.5 beats/min
Δ HR % (male Wistar rats; 800 μg/kg i.v.): -5 ± 2%
Δ SV (male Wistar rats; 800 μg/kg i.v.): -85.8 ± 9 µL
Δ SV % (male Wistar rats; 800 μg/kg i.v.): -72 ± 9%
Δ TV (male Wistar rats; 800 μg/kg i.v.): -93 ± 8%
Δ dp/dt (male Wistar rats; 800 μg/kg i.v.): +3282 ± 269 mmHg/sec
Δ dp/dt % (male Wistar rats; 800 μg/kg i.v.): +51 ± 7%
Δ AF (male Wistar rats; 1600 μg/kg i.v.): -36.1 ± 4.8 mL/min
Δ AF % (male Wistar rats; 1600 μg/kg i.v.): -83 ± 5%
Δ AP % DIAST (male Wistar rats; 1600 μg/kg i.v.): -47.0 ± 6.8%
Δ AP % SYST (male Wistar rats; 1600 μg/kg i.v.): -36.0 ± 5.3%
Δ AP DIAST (male Wistar rats; 1600 μg/kg i.v.): -43.4 ± 6.8 mmHg
Δ AP SYST (male Wistar rats; 1600 μg/kg i.v.): -41.1 ± 5.3 mmHg
Δ HR (male Wistar rats; 1600 μg/kg i.v.): -30 ± 6 beats/min
Δ HR % (male Wistar rats; 1600 μg/kg i.v.): -9 ± 3%
Δ SV (male Wistar rats; 1600 μg/kg i.v.): -97.4 ± 8 µL
Δ SV % (male Wistar rats; 1600 μg/kg i.v.): -82 ± 8%
Δ TV (male Wistar rats; 1600 μg/kg i.v.): -98 ± 5%
Δ dp/dt (male Wistar rats; 1600 μg/kg i.v.): +3676 ± 264 mmHg/sec
Δ dp/dt % (male Wistar rats; 1600 μg/kg i.v.): +57 ± 6%
Δ AF (male Wistar rats; 3200 μg/kg i.v.): -41.0 ± 6.9 mL/min
Δ AF % (male Wistar rats; 3200 μg/kg i.v.): -94 ± 7%
Δ AP % DIAST (male Wistar rats; 3200 μg/kg i.v.): -58.0 ± 4.2%
Δ AP % SYST (male Wistar rats; 3200 μg/kg i.v.): -42.0 ± 6.5%
Δ AP DIAST (male Wistar rats; 3200 μg/kg i.v.): -53.0 ± 4.2 mmHg
Δ AP SYST (male Wistar rats; 3200 μg/kg i.v.): -47.8 ± 6.5 mmHg
Δ HR (male Wistar rats; 3200 μg/kg i.v.): -41 ± 8 beats/min
Δ HR % (male Wistar rats; 3200 μg/kg i.v.): -12 ± 3%
Δ SV (male Wistar rats; 3200 μg/kg i.v.): -117.2 ± 8 µL
Δ SV % (male Wistar rats; 3200 μg/kg i.v.): -98 ± 8%
Δ TV (male Wistar rats; 3200 μg/kg i.v.): -100%
Δ dp/dt (male Wistar rats; 3200 μg/kg i.v.): +4708 ± 430 mmHg/sec
Δ dp/dt % (male Wistar rats; 3200 μg/kg i.v.): +73 ± 9%
reflected tachycardia (in words) (male Wistar rats; all dose levels, i.v., rat): does not cause any reflected tachycardia
bradycardia / reduction of heart rate (in words) (male Wistar rats; all doses, i.v., rat): reduction of heart rate (HR), at all doses
action on the heart inotropism (in words) (male Wistar rats; i.v., rat): a constant stimulating action on the heart inotropism
hypotensive effect with respect to guanido-I (in words) (male Wistar rats; i.v., rat, vs guanido-I): higher pharmacological power as to hypotensive effect
effects on AP, AF, RF and TV (in words) (male Wistar rats; i.v., increase at 50-100 or 50-200 μg/kg, decrease up to 3,200 μg/kg): biphasic effects on AP, AF, RF and TV
cardiovascular responses after previous treatment with Hexameton (cardiovascular responses; previous treatment with Hexameton (ganglioplegic)): caused an increase in the cardiovascular responses
cardiovascular responses to acetylcholine and isoproterenol after previous treatment (cardiovascular responses; previous treatment with diguanido-II, agonists i.v., linear with agonist dose): increased the cardiovascular responses to administration, through i.v. route, of acetylcholine and isoproterenol
cardiovascular responses to nor-adrenaline and adrenaline after previous treatment (cardiovascular responses; previous treatment with diguanido-II, hypertensive doses of agonists): decreased the cardiovascular responses induced by hypertensive doses of nor-adrenaline and of adrenaline
